Converted amounts (≈) assume the structure as drawn.
Experiments:
[1] = system: Escherichia coli NIHJ; test: antimicrobial test (MIC); type: cell-based
[2] = system: Klebsiella pneumoniae IFO 3512; test: antimicrobial test (MIC); type: cell-based; details: IFO3512
[3] = system: Proteus mirabilis 1287; test: antimicrobial test (MIC); type: cell-based
[4] = system: Serratia marcescens IFO 3046; test: antimicrobial test (MIC); type: cell-based; details: IFO3046
[5] = system: Staphylococcus aureus 209-P; test: antimicrobial test (MIC); type: cell-based
[6] = system: Escherichia coli K-12; test: antimicrobial test (MIC); type: cell-based; details: K12
[7] = system: Bacillus sub-tillis ATCC 6633; test: antimicrobial test (MIC); type: cell-based; details: ATCC6633
[8] = system: Proteus vulgaris OX-19; test: antimicrobial test (MIC); type: cell-based; details: OX19
[9] = in vivo; details: mouse, oral administration to mice
Source text: The compounds of this invention have low toxicity.

SMILES	MIC [1] [µg/mL]	MIC [2] [µg/mL]	MIC [3] [µg/mL]	MIC [4] [µg/mL]	MIC [5] [µg/mL]	MIC [6] [µg/mL]	MIC [7] [µg/mL]	MIC [8] [µg/mL]	LD50 [9] [mg/kg]
CCn1cc(C(=O)O)c(=O)c2sc(Br)cc21 [Compound B, 2-bromo-4,7-dihydro-4-ethyl-7-oxo-thieno(3,2-b)pyridine-6-carboxylic acid]	1.56 (≈ 5.16 µM)	3.13 (≈ 10.4 µM)	3.13 (≈ 10.4 µM)	1.56 (≈ 5.16 µM)	> 100	6.25 (≈ 20.7 µM)	6.25 (≈ 20.7 µM)	6.25 (≈ 20.7 µM)	
CCn1cc(C(=O)O)c(=O)c2sc(I)cc21 [Compound C, 2-iodo-4,7-dihydro-4-ethyl-7-oxo-thieno(3,2-b)pyridine-6-carboxylic acid]	1.56 (≈ 4.47 µM)	1.56 (≈ 4.47 µM)	0.78 (≈ 2.23 µM)	0.78 (≈ 2.23 µM)	25 (≈ 71.6 µM)	3.13 (≈ 8.96 µM)	1.56 (≈ 4.47 µM)	0.78 (≈ 2.23 µM)	2800
CCn1cc(C(=O)O)c(=O)c2ccc(C)nc21 [Nalidixic acid, reference compound]	1.56 (≈ 6.72 µM)	1.56 (≈ 6.72 µM)	3.13 (≈ 13.5 µM)	1.56 (≈ 6.72 µM)	> 100	6.25 (≈ 26.9 µM)	3.13 (≈ 13.5 µM)	3.13 (≈ 13.5 µM)	
CCn1cc(C(=O)O)c(=O)c2sc(Cl)cc21 [Compound A, 2-chloro-4,7-dihydro-4-ethyl-7-oxo-thieno(3,2-b)pyridine-6-carboxylic acid]	1.56 (≈ 6.05 µM)	6.25 (≈ 24.3 µM)	6.25 (≈ 24.3 µM)	3.13 (≈ 12.1 µM)	> 100	12.5 (≈ 48.5 µM)	12.5 (≈ 48.5 µM)	12.5 (≈ 48.5 µM)	

— patent publication EP0046990A2, “2-Halogeno-4-alkyl-4,7-dihydro-7-oxo-thieno(3,2-b)-pyridine-6-carboxylic acids, salts thereof at the carboxyl group, pharmaceutical use thereof, and intermediates thereof” (KANEBO, LTD., priority 1980, dated 1982)
